Assays:
[1] = pH range of 1 to 12 at ambient temperature; cited from earlier work
[2] = Drug-excipient compatibility: HPLC assay and impurities of 20 mg/ml API/excipient solutions in purified water after storage; assay type: physicochemical
Description: Common excipients functioning as a solvent, a sweetener, an antioxidant, a chelating agent, a buffer system component, and a preservative were evaluated in the following example for excipient and drug substance compatibility. Compatibility was assessed through high performance liquid chromatography (HPLC) analysis of solutions containing the mixtures of the drug substance and the individual evaluated excipient in purified water. A relatively low concentration (20 mg/ml) of active pharmaceutical ingredient was selected to enhance potential oxidative or hydrolytic degradation of the API in the presence of the excipients. The excipients were used in slight excess to enhance potential interactions. The proportion of excipients was selected such that it was representative of their respective proportions to the API in the finished product.
Additionally, the pH of the solution was also monitored during development to ensure the physical stability of the product.

[3] = after storage for 1 Month at 25° C./60% RH
[4] = after storage for 1 Month at 40° C./75% RH
[5] = after storage for 15 days at 60° C.

CN(C)CCCN1c2ccccc2Sc2ccc(Cl)cc21.Cl [Chlorpromazine hydrochloride, 2-chloro-10-[3-(dimethylamino)propyl] phenothiazine hydrochloride]
solubility [1]: greater than 1 g/mL
Assay of Chlorpromazine Hydrochloride (% Label Claim) ([2]; 1 M, 25° C./60% RH): 98.6 % Label Claim
Assay of Chlorpromazine Hydrochloride (% Label Claim) ([2]; 1 M, 40° C./75% RH): 98.7 % Label Claim
Assay of Chlorpromazine Hydrochloride (% Label Claim) ([2]; 15 Days, 60° C.): 100.9 % Label Claim
Assay of Chlorpromazine Hydrochloride (% Label Claim) ([2]; T0): 98.3 % Label Claim
Impurities (%) A [2, 3]: 0.07%
Impurities (%) C [2, 3]: 0.07%
Impurities (%) D [2, 3]: 0.03%
Impurities (%) Total [2, 3]: 0.24%
Impurities (%) UD (RRT 0.55) [2, 3]: 0.02%
Impurities (%) UD (RRT 0.61) [2, 3]: 0.02%
Impurities (%) UD (RRT 1.42) [2, 3]: 0.03%
Impurities (%) A [2, 4]: 0.21%
Impurities (%) C [2, 4]: 0.07%
Impurities (%) D [2, 4]: 0.08%
Impurities (%) Total [2, 4]: 0.44%
Impurities (%) UD (RRT 0.55) [2, 4]: 0.02%
Impurities (%) UD (RRT 0.61) [2, 4]: 0.02%
Impurities (%) UD (RRT 1.42) [2, 4]: 0.03%
Impurities (%) A [2, 5]: 0.55%
Impurities (%) C [2, 5]: 0.08%
Impurities (%) D [2, 5]: 0.18%
Impurities (%) E [2, 5]: 0.02%
Impurities (%) Total [2, 5]: 1.04%
Impurities (%) UD (RRT 0.49) [2, 5]: 0.02%
Impurities (%) UD (RRT 0.55) [2, 5]: 0.14%
Impurities (%) UD (RRT 0.61) [2, 5]: 0.03%
Impurities (%) UD (RRT 1.42) [2, 5]: 0.03%
Impurities (%) Total ([2]; time zero): 0.11%
Impurities (%) UD (RRT 0.82) ([2]; time zero): 0.08%
Impurities (%) UD (RRT 1.31) ([2]; time zero): 0.03%

From US11766441B2, “Oral liquid compositions including chlorpromazine” (GENUS LIFESCIENCES INC., priority 2020, dated 2023)
